Assay results published in patent US11672771B2, “Beta-alethine, immune modulators, and uses thereof” (AxImmune, Inc., priority 2016, dated 2023).
Entries after “also recorded” stand apart in the source; their conditions may differ.

Columns and labels:
multiple myeloma = multiple myeloma (Benson et al., 2012); cited from earlier work
[1] = tested on: CD4+ or CD8+ T cells that expressed PD-1, Lag3, or Tim3; assay: Checkpoint inhibitor expression and T cell percentages in blood 48 hours after one s.c. injection of β-alethine in Cloudman melanoma mice; format: in vivo, DBA mice
Experimental: It was hypothesized that β-alethine could affect checkpoint inhibitors expression in vivo in tumor bearing animals. […] As a baseline, blood from each animal was taken (“Cloudman preBLT”). Mice then were treated with one subcutaneous (s.c.) injection of 30 mg/kg β-alethine. 48 hours after receiving the s.c. injection of β-alethine, blood was taken (“Cloudman postBLT”). […]

[2] = tested on: Cloudman melanoma cancer cell line; assay: Tumor size after s.c. and intratumoral β-alethine in mice with established Cloudman melanoma; format: in vivo, DBA mice
Experimental: At 38 days after tumor cell injection, the tumors were 17, 25 and 32 mm^2. At 38, 46, and 52 days after tumor cell injection, mice were treated with s.c. injections between the shoulder blades (distal to the tumor) of 30 mg/kg β-alethine in sterile saline (each s.c. injection of β-alethine is indicated by triangles in FIG. 2). Tumor size was monitored after each injection. […] However, the other two mice were then treated with β-alethine at 30 mg/kg intratumorally (i.t.) on day 55 post-tumor cell injection.
Further, when β-alethine was injected directly into the tumors, animals that previously had not responded or not fully responded via s.c. injection now responded, included apparent complete response.

[3] = tested on: Cloudman melanoma cancer cell line; assay: Tumor growth with β-alethine, anti-PD-1 or both (concurrent or sequential) in Cloudman melanoma mice; format: in vivo; conditions: for tumor growth (tumor size): vs PBS, not statistically significant
Experimental: After confirming tumor growth, mice were randomized into the treatment groups listed in Table 4. n=10 mice in the Low Dose, High Dose, q14, untreated, and PBS groups; n=5 mice in PD-1 and BLT/PD-1 groups.
Tumor growth was measured 3 times a week. […] In the PBS treated group, there likely was an artificially low reading in the PBS group on day 23. A repeat reading of tumor size at day 25 confirmed the original trajectory. […] In addition, by day 25, the cancers in all these groups were growing at rates similar to the PBS or untreated control.
In order to further examine this dramatic result, long-term immunity after relapse was determined. In the mice treated with three doses of PD-1 alone at days 15, 18, and 21, tumor size increased through day 29 until the average size was almost 50 mm^2. […] At day 29, mice in the single agent anti-PD-1 treated group received a dose of 30 mg/kg β-alethine subcutaneously, and then weekly thereafter. […] Thus, in total, 9 of 10 mice in either the combination treatment group or the anti-PD-1 rescued with β-alethine group had complete regression of their tumors.

[4] = tested on: monocytes expressing PD-L1; assay: Ex vivo treatment of dog white blood cells, PD-L1 on monocytes by flow cytometry; format: cell-based; conditions: 0-1000 uM, 24 hours incubation, autologous serum; in some of the dogs (three healthy, three with cancer)
Experimental: In this study, white blood cells and serum were isolated from three healthy dogs and three dogs with cancer. Two dogs had osteosarcoma (Cancer_1 and Cancer_2 in FIG. 5) and one dog had melanoma (Cancer_3 in FIG. 5). Isolated white blood cells were grown in culture with autologous dog serum and varying doses of β-alethine (0-1000 uM). After 24 hours of incubation with β-alethine, monocytes were isolated and were examined for PD-L1 expression using flow cytometry analysis and a canine-specific anti-PD-L1 antibody. […] Further is documents cross species activity of BA. Current human clinical trials with immune checkpoint inhibitors also include antibodies antagonistic to PD-L1. Thus, β-alethine could also be used synergistically with anti-PD-L1 therapies.

NS-1 mouse myeloma = conditions: repeated administration as monotherapy soon after inoculation with relatively low doses of tumor; cited from earlier work
Cloudman S-91 melanomas = conditions: melanomas already established; cited from earlier work
MT-1 tumor xenograft = conditions: cited from earlier work
lymphoma = conditions: single agent; cited from earlier work
[5] = in vivo; cited from earlier work
[6] = tested on: human peripheral blood mononuclear cells; conditions: polarized Th1 response; cited from earlier work
[7] = Post-, 48 hours after β-alethine s.c.
[8] = Post-β-alethine, blood 48 hours after one s.c. injection of 30 mg/kg

In the case of “lirlumab: anti-KIR antibody (Innate Pharma)”, the anti-tumor activity (multiple myeloma) is listed as “demonstrated anti-tumor activity”.

In the case of `NCCC(=O)NCCSSCCNC(=O)CCN` [β-alethine, 3-amino-N-(2-{[2-(3-aminopropanamido)ethyl]disulfanyl}ethyl)propenamide], the “number of molecule per cell (mean fluorescent intensity MFI) on cells that continued to have checkpoint molecule expression” value ([1]; 48 hours after one s.c. injection of 30 mg/kg vs before) is reported as “specific reduction”, the “percentages of CD4 and CD8 T cells expressing PD-1, Lag3, or Tim3” value ([1]; FIG. 1A, 48 hours after one s.c. injection of 30 mg/kg vs before) is reported as “reduced percentages” and the “% CD8+ of white blood cells” value [1, 7] is reported as 0.9%. For the same molecule, the “CD4-Lag3, percentage of cells expressing checkpoint inhibitor” value [1, 7] was 2.1%, the “CD4-PD1, percentage of cells expressing checkpoint inhibitor” value [1, 7] was 4.4% and the “CD4-Tim3, percentage of cells expressing checkpoint inhibitor” value [1, 7] was 1.3%. For the same molecule, the “CD8-Lag3, percentage of cells expressing checkpoint inhibitor” value [1, 7] was 0.1%, the “CD8-PD1, percentage of cells expressing checkpoint inhibitor” value [1, 7] was 1.2% and the “CD8-Tim3, percentage of cells expressing checkpoint inhibitor” value [1, 7] was 0.2%. For the same molecule, the “CD4-Lag3+ checkpoint inhibitor expression” value [1, 8] was 55 MFI, the “CD4-PD1+ checkpoint inhibitor expression” value [1, 8] was 153 MFI and the “CD4-Tim3+ checkpoint inhibitor expression” value [1, 8] was 93 MFI. The “CD8-Lag3+ checkpoint inhibitor expression” value [1, 8] was 627 MFI, the “CD8-PD1+ checkpoint inhibitor expression” value [1, 8] was 259 MFI and the “CD8-Tim3 checkpoint inhibitor expression” value [1, 8] was 1283 MFI. The “tumor response of second mouse after intratumoral injection” value ([2]; 30 mg/kg i.t. on day 55 after s.c. injections, seen on day 66) was “complete regression of the tumor”, the “tumor size of remaining mouse after series of i.t. injections” value ([2]; 30 mg/kg i.t. on days 55, 68, 82) was “decrease in tumor size” and the “start of tumor regression in the remaining mouse” value ([2]; 30 mg/kg i.t. on days 55, 68, 82 after s.c. injections) was ~70 day post-tumor cell injection. The “complete tumor regression after s.c. injections” value ([2]; 30 mg/kg s.c. at days 38, 46, 52, three mice, at day 56 post-tumor cell injection) was “one of the mice demonstrated a complete tumor regression”, the “local or systemic side effects” value ([2]; i.t. injections of 30 mg/kg in the mouse) was “not associated with any perceivable local or systemic side effects” and the “tumor growth (tumor size)” value ([3]; High dose: 30 mg/kg s.c. once a week from day 15) was “delayed tumor growth temporarily”. The “tumor growth (tumor size)” value ([3]; Low dose: 30 ng/kg s.c. once a week from day 15) was “delayed tumor growth temporarily”, the toxicity ([3]; low dose or high dose β-alethine alone) was “no obvious toxicity was observed” and the “percentages of monocytes expressing PD-L1” value [4] was “reduced the percentages of monocytes expressing PD-L1”. The survival rates (NS-1 mouse myeloma) was “significantly increased survival rates”, the percent survival (Cloudman S-91 melanomas) was “increase the percent survival” and the “effectiveness of chemotherapy for late stage breast cancer” value (MT-1 tumor xenograft; adjunct to chemotherapy) was “increase effectiveness of chemotherapy”. The “toxicity due to the chemotherapy” value (MT-1 tumor xenograft; adjunct to chemotherapy) was “did not increase toxicity due to the chemotherapy”, the localized tumor growth (MT-1 tumor xenograft; breast cancer) was “effective in treating localized tumor growth” and the “drug related adverse events” value (lymphoma) was “no local or systemic drug related adverse events; also recorded: no drug-related adverse events”. The “tumor size in lymphoma patients not anergic to recall antigens pre-trial” value (lymphoma) was “reduction or stabilization in tumor sized in all patients with lymphoma who were not anergic to recall antigens pre-trial; also recorded: shrinkage or stabilization in all patients with lymphoma who were not anergic to recall antigens pre-trial”, the toxicity in animals [5] was “non-toxic” and the IFN-γ production [6] was “increased IFN-γ production”. The IL-10 expression [6] was “depressed IL-10 expression” and the “T cell activation and proliferation” value [6] was “increased T cell activation and proliferation”.

In the case of “IPH2101: anti-KIR antibody (Innate Pharma)”, the anti-tumor activity (multiple myeloma) is listed as “demonstrated anti-tumor activity”.
